{"source": "patent US12552813B2", "about": "“Heterocyclic substituted pyrimidopyran compound and use thereof” (Medshine Discovery Inc., priority 2023, dated 2026)", "type_in_all_cases": "cell-based", "key": {"[1]": {"test_system": "KRAS^G12D mutant AsPC-1 cells", "assay": "AsPC-1 cell proliferation assay (3D-CTG method)", "details": "Homo sapiens, ASPC1, 168 h, Experimental Example 2, 2,000 cells per well, 7 days incubation", "quoted_text": "1) ASPC-1 cells were seeded in a transparent 96-well cell culture plate, at a density of 195 μL of cell suspension per well containing 2,000 cells.\n2) The compound to be tested was diluted with 100% DMSO to 10 mM as the 1st concentration and then diluted 5 times by a pipette to the 8th concentration, i.e. from 10 mM to 0.13 M. 2 μL of the gradient-diluted compound was added to 48 μL of cell medium for secondary dilution. After mixed, 5 μL of the secondary-diluted compound was added to the corresponding wells of the cell plate containing 195 μL of cells. The cell plate was put into a carbon dioxide incubator and incubated for 7 days.\n3) After incubation, 100 μL of cell supernatant was discarded and 3D-CTG was added at a density of 60 μL per well. The cells were shaken and incubated at room temperature and 200 rpm for 20 min, and incubated in an incubator at room temperature for 1 h.\n4) 100 μL of supernatant was pipetted from the well plate and transferred to a 96-well black plate with a clear bottom, and the luminescence was read in the BMG.\nThe original data was converted into the inhibition rate using equation Inhibition %=(Ave_H−Sample)/(Ave_H−Ave_L), and the IC50 value was obtained by curve fitting through four parameters (log(inhibitor) vs. response—Variable slope mode in GraphPad Prism). • H well: Reading of DM well • L well: Reading of Medium 5."}, "[2]": {"test_system": "KRAS^G12V mutant H727 cells", "assay": "H727 cell proliferation assay (3D-CTG method)", "details": "Homo sapiens, NCI-H727, 168 h, 2,000 cells per well, 7 days incubation", "experimental": "H727 cells from ATCC; RPMI-1640 medium from ATCC; fetal bovine serum from Ausgenex; CellTiter-Glo® 3D assay kit (3D-CTG) from Promega; and CellCarrier-96 Spheroid ULA/CS from PE.\n5) The aforementioned cells were seeded in a transparent 96-well cell culture plate, at a density of 195 μL of cell suspension per well containing 2,000 cells.\n6) The compound to be tested was diluted with 100% DMSO to 10 mM as the 1st concentration and then diluted 5 times by a pipette to the 8th concentration, i.e. from 10 mM to 0.13 μM. 2 μL of the gradient-diluted compound was added to 48 μL of cell medium for secondary dilution. After mixed, 5 μL of the secondary-diluted compound was added to the corresponding wells of the cell plate containing 195 μL of cells. […]\n7) After incubation, 100 μL of cell supernatant was discarded and 3D-CTG was added at a density of 60 μL per well. […] 8) 100 μL of supernatant was pipetted from the well plate and transferred to a 96-well black plate with a clear bottom, and the luminescence was read in the BMG.\nThe original data was converted into the inhibition rate using equation Inhibition %=(Ave_H−Sample)/(Ave_H−Ave_L), and the IC50 value was obtained by curve fitting through four parameters (log(inhibitor) vs. response—Variable slope mode in GraphPad Prism). • H well: Reading of DMSO well • L well: Reading of Medium 5. […]"}, "[3]": {"test_system": "SW620 (KRAS G12V mutant) cell line", "assay": "SW620 cell in vitro proliferation assay", "details": "Homo sapiens, SW-620, 240 h, 1,000 cells per well, 10 days incubation, 3D CellTiter-Glo", "experimental": "RPMI1640 medium, penicillin/streptomycin antibiotics from Gibco, and fetal bovine serum from Hyclone. 3D CellTiter-Glo (cell viability chemiluminescent assay) reagent from Promega. SW620 (KRAS G12V mutant) cell line from ATCC, Envision Multilabel analyzer (PerkinElmer).\nThe cells were seeded in a 96-well, ultra-low adsorption U-plate, at a density of 80 μL of cell suspension per well containing 1,000 cells. The cell plate was incubated overnight in a carbon dioxide incubator.\nThe compound to be tested was diluted using a multi-channel pipette by 5 times for 8 concentrations, that was, from 2 mM to 25.6 nM, and double replicates were set up. 78 μL of medium was added to an intermediate plate. Then the gradient-diluted compound was transferred to the intermediate plate at a density of 2 μL per well according to the corresponding position, mixed and transferred at a density of 20 μL per well to a cell plate. […] Another cell plate was prepared, and the signal value read on the day of addition was taken as the maximum value (the Max value in the equation below) to be used in data analysis.\nA cell viability chemiluminescent assay reagent was added to the cell plate at a density of 100 μL per well and incubated at room temperature for 30 min to stabilize luminous signals. The readings are taken using a multilabel analyzer. […]"}, "[4]": {"test_system": "KRAS^G12D mutant tumor cell line AsPC-1", "assay": "Antiproliferative effects of compounds in tumor cell line AsPC-1 (CellTiter-Glo 3D)", "details": "Homo sapiens, ASPC1, Experimental Example 1, 7,000 cells per well, ULA plate, 120 h incubation", "experimental": "The experiment studies the antiproliferative effects of compounds by detecting the effects of the compounds on in vitro cell activity of the KRAS^G12D mutant tumor cell line AsPC-1.\nThe cell line was AsPC-1. The tumor type was pancreatic cancer. The cell line was cultured by adherent growth using RPMI 1640+10% FBS. • Ultra Low Cluster-96-well plate (Corning-7007) • Greiner CELLSTAR 96-well plate (#655090) • Promega CellTiter-Glo 3D luminescence cell activity assay kit (Promega-G9683) • 2104-10 EnVision reader, PerkinElmer • RPMI 1640, DMEM, PBS (phosphate buffer), FBS (fetal bovine serum), Antibiotic-antimycotic, L-glutamine, and DMSO (dimethyl sulfoxide)\nThe tumor cell line was incubated in an incubator at 37° C., 5% CO2 under the culture conditions shown by the culture method. Regular passage was conducted, and the cells in the logarithmic growth phase were taken for seeding.\nThe cell line was AsPC-1, with a density of 7,000 cells (per well).\nA cell suspension is added at a density of 135 μL per well to a ULA culture plate, and the same volume of cell-free medium is added to a blank control plate.\nThe ULA culture plate was centrifuged at room temperature for 10 min at 1,000 rpm immediately after seeding. Caution: Always handle follow-up actions with care after centrifuging to avoid unnecessary shaking. […]\nThe luminous signals were detected on a 2104 EnVision reader. […]"}}}
{"compound": "C=C1CN2CCC[C@]2(COc2nc3c(c(N4CCCn5nc(C(=O)N(C)C)cc5C4)n2)CO[C@@H](c2c(F)c(N)cc(C#CC)c2C(F)(F)F)C3)C1", "note": "(single isomer, unassigned) [Compound 5A]", "values": [{"measurement": "IC50", "setting": "[1]", "result": 11.8, "unit": "nM"}, {"measurement": "IC50", "setting": "[2]", "result": 45.9, "unit": "nM"}, {"measurement": "IC50", "setting": "[3]", "result": 27.5, "unit": "nM"}, {"measurement": "IC50", "setting": "[4]", "result": 6.1, "unit": "nM"}]}
